Reference: US9487540B2, “Compound for inhibiting the growth and proliferation of human liver cancer cells and method for synthesizing it” (priority 2015, dated 2016)
Values after ≈ are worked out from the molar mass of the structure shown.

Columns and labels:
[1] = Cytotoxicity evaluation using viability assay (crystal violet colorimetric method); format: cell-based; conditions: human, HepG2 cells; for viability at 48 h, 0.78 μg: HepG2, sample conc. 0.78 μg
[2] = as above; format: cell-based, human; conditions: human, HepG2 cells, 48 hours; for viability at 48 h, 1.56 μg: HepG2, sample conc. 1.56 μg; for viability at 48 h, 3.125 μg: HepG2, sample conc. 3.125 μg; for viability at 48 h, 6.25 μg: HepG2, sample conc. 6.25 μg; for viability at 48 h, 12.5 μg: HepG2, sample conc. 12.5 μg; for viability at 48 h, 25 μg: HepG2, sample conc. 25 μg; for viability at 48 h, 50 μg: HepG2, sample conc. 50 μg
From the text: (§1) HepG2 cells (human cell line of a well differentiated hepatocellular carcinoma isolated from a liver biopsy of a person) were obtained from the American Type Culture Collection (ATCC). The chemicals used were: Dimethyl sulfoxide (DMSO), crystal violet and trypan blue dye, purchased from Sigma, St. Louis, Mo., USA; DMEM, RPMI-1640, FBS, HEPES buffer solution, L-glutamine, gentamycin and 0.25% Trypsin-EDTA, purchased from BioWhittaker®, Lonza, Belgium; and Crystal violet stain (1%), composed of 0.5% (w/v) crystal violet and 50% methanol, made up to volume with ddH20 and filtered through a Whatmann No. I filter paper.
(§2) In the cytotoxicity assay, the cells were propagated in Dulbecco's modified Eagle's medium (DMEM) supplemented with 10% heat-inactivated fetal bovine serum, 1% L-glutamine, HEPES buffer and 50 μg/ml gentamycin. All cells were maintained at 37° C. in a humidified atmosphere with 5% CO2 and were subcultured two times a week.
(§3) Cell toxicity was monitored by determining the effect of the test samples on cell morphology and cell viability.
(§4) For cytotoxicity assay, the cells were seeded in a 96-well plate at a cell concentration of 1×10^4 cells per well in 100 μl of growth medium. Fresh medium containing different concentrations of the test sample was added after 24 hours following seeding. Serial two-fold dilutions of the tested chemical compound were added to confluent cell monolayers dispensed into 96-well, flat-bottomed microtiter plates (Falcon, N.J., USA) using a multichannel pipette. The microtiter plates were incubated at 37° C. in a humidified incubator with 5% CO2 for a period of 48 hours. Three wells were used for each concentration of the test sample. Control cells were incubated without test sample and with or without DMSO. The little percentage of DMSO present in the wells (maximal 0.1%) was found not to affect the experiment. After incubation of the cells for 24 hours at 37° C., various concentrations of sample (50, 25, 12.5, 6.25, 3.125 & 1.56 μg) were added, and the incubation was continued for 48 hours and viable cells yield was determined by a colorimetric method.
(§5) In brief, after the end of the incubation period, media were aspirated and the crystal violet solution (1%) was added to each well for at least 30 minutes. The stain was removed and the plates were rinsed using tap water until all excess stain was removed. Glacial acetic acid (30%) was then added to all wells and mixed thoroughly and then the absorbance of the plates was measured after being gently shaken on a Microplate reader (TECAN, Inc.), using a test wavelength of 490 nm. All results were corrected for background absorbance detected in wells without added stain. Treated samples were compared with the cell control in the absence of the tested compound. All experiments were carried out in triplicate.
(§6) The cell cytotoxic effect of tested compound was calculated according to the rapid colorimetric assay for cellular growth and survival: application to proliferation and cytotoxicity assay, published by T. Mosmann in the Journal of Immunology Methods, 1983, 65:55-63; and the antiviral activity of medicinal plants of Nilgriris, published by P. Vijayan et al. in the Indian Journal of Medical Research, 2004, 120: 24-29.

[3] = system: HepG2 (Hepatocellular carcinoma cells); experiment: as above; format: cell-based, human; conditions: Homo sapiens, 48 hours incubation, read-out: inhibition concentration value (IC50)
From the text: as §1, §2, §3, §4, §5, §6

| SMILES | melting point [°C] | viability at 48 h, 0.39 μg ([1]; HepG2, sample conc. 0.39 μg) [%] | viability at 48 h, 0.78 μg [1] [%] | viability at 48 h, 1.56 μg [2] [%] | viability at 48 h, 3.125 μg [2] [%] | viability at 48 h, 6.25 μg [2] [%] | viability at 48 h, 12.5 μg [2] [%] | viability at 48 h, 25 μg [2] [%] | viability at 48 h, 50 μg [2] [%] | IC50 [3] [µg/mL] |
| --- | --- | --- | --- | --- | --- | --- | --- | --- | --- | --- |
| O=c1[nH]c(Nc2ccc([N+](=O)[O-])cc2)nc2sc3c(c12)CCCCC3 (hydrate or solvate) [Compound III, 2-((4-Nitrophenyl)amino)-6,7,8,9-tetrahydro-3H-cyclohepta[4,5]thieno[2,3-d]pyrimidin-4(5H)-one] | 298 | – | – | – | – | – | – | – | – | – |
| O=c1[nH]c(Nc2ccc([N+](=O)[O-])cc2)nc2sc3c(c12)CCCCC3 [Compound III, 2-((4-Nitrophenyl)amino)-6,7,8,9-tetrahydro-3H-cyclohepta[4,5]thieno[2,3-d]pyrimidin-4(5H)-one] | – | 60.8 | 47.1 | 36.9 | 23.7 | 18.5 | 14.4 | 10.2 | 6.32 | 0.7 (≈ 1.96 µM) |
| COc1cccc2c1C(=O)c1c(O)c3c(c(O)c1C2=O)C[C@@](O)(C(=O)CO)C[C@@H]3O[C@H]1C[C@H](N)[C@H](O)[C@H](C)O1 [Doxorubicin, reference compound] | – | – | 57.4 | 48.2 | 30.3 | 21 | 16.9 | 14.3 | 10.9 | – |
